According to patent US20260355196A1, “INHIBITORS AND DEGRADERS OF PIP4K PROTEIN” (Larkspur Biosciences, Inc., priority 2023, published 2026):

target: T1, PIP4K2C (Homo sapiens, UniProt Q8TBX8); test: HiBiT PIP4K2C degradation assay in MOLT-4 cells (endogenous PIP4K2C C-terminally tagged with HiBiT); assay type: cell-based; set-up: untagged in primary human PBMCs and monocyte-derived dendritic cells; conditions: 6 hours of incubation time, rather than 24 hours; MOLT-4, top concentration 10 micromolar; read-out: HiBIT-degradation MOLT4 PIP4k2C DC50 (6 hours, marked *)
T1 sequence (Q8TBX8 1-421): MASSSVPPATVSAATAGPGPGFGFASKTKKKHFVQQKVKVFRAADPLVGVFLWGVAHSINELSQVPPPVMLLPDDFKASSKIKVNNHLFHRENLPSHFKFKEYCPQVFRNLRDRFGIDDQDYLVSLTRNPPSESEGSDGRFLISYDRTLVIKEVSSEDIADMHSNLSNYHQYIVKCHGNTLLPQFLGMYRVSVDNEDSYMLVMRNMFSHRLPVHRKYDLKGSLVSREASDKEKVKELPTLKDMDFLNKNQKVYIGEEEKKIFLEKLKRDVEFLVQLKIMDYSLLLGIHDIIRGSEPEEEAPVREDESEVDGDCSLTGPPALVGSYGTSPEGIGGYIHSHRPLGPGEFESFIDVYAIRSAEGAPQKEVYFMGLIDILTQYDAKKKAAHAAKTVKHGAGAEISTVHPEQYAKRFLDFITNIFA
Source text: Example B-2: HiBiT PIP4K2C degradation assay
Materials: MOLT-4, a human T lymphoblast cell line (see https://www.atcc.org/products/crl-1582, herein incorporated by reference in its entirety), was genetically engineered using CRISPR-Cas9 by Synthego Corporation (Redwood City, CA) to C-terminally tag endogenous PIP4K2C with HiBiT peptide. Following clonal selection, genotype was confirmed by Sanger sequencing. MO LT-4 were maintained using RPMI-1640 medium from Gibco (Grand Island, NY, catalog number 11875-085) supplemented with 10% fetal bovine serum (FBS) from VWR (Philadelphia, PA, catalog number 97068-085). For HiBiT assays the cells were resuspended in RPMI-1640 medium without phenol read from Gibco (Grand Island, NY, catalog number 11835-030) supplemented with 10% FBS. Nano-Glo® HiBiT Lytic Assay System was purchased from Promega (Madison, WI, Catalog number N3030). Cell culture flasks and 384-well microplates were purchased from Corning (Glendale, AZ).
To study PIP4K2C degradation, 384-well plates were plated with a 10-point dose response curve, 3-fold dilution, in duplicate with a top starting concentration of 10 micromolar. Subsequently 22,500 cells were added to each well and incubated at 37 C in 5% C02 for 24 hours or 6 hours. At the end of the incubation time, cells were treated with the Nano-Glo® HiBiT Lytic Detection System following the manufacturer's instructions. Luminescence was measured with a PHERAstar FSX plate reader (BMG Labtech, Cary, NC). The Levenberg-Marquardt algorithm was used to fit a Hill equation to dose-response data to calculate DC50 values (see Table 6).

DC50 [nM]	Compound
< 500	O=C1CCC(Nc2ccc(N3CCN(CC4CCN(C(=O)[C@H]5CC[C@H](Nc6ncc(F)c(-c7cccc(N8CCCOC8=O)c7)n6)CC5)CC4)CC3)c(F)c2)C(=O)N1 (stereo partly drawn) [Compound 426, trans-3-[3-fluoro-4-[4-[[1-[4-[[5-fluoro-4-[3-(2-oxo-1,3-oxazinan-3-yl)phenyl]pyrimidin-2-yl]amino]cyclohexanecarbonyl]-4-piperidyl]methyl]piperazin-1-yl]anilino]piperidine-2,6-dione]
< 500	O=C1CCC(Nc2ccc(C3CCN(C[C@H]4CC[C@H](C(=O)N5CCC(Nc6ncc(F)c(-c7cccc(-n8ccccc8=O)c7)n6)CC5)CC4)CC3)c(F)c2)C(=O)N1 (stereo partly drawn) [Compound 693, 3-((3-fluoro-4-(1-(((trans)-4-(4-((5-fluoro-4-(3-(2-oxopyridin-1 (2H)-yl)phenyl)pyrimidin-2-yl)amino)piperidine-1-carbonyl)cyclohexyl)methyl)piperidin-4-yl)phenyl)amino)piperidine-2,6-dione]
> 5000	O=C1CCC(Nc2ccc(C3CCN([C@H]4CC[C@H](C(=O)N[C@H]5CC[C@H](Nc6ncc(F)c(-c7cccc(N8CCOCC8=O)n7)n6)CC5)CC4)CC3)c(F)c2)C(=O)N1 (stereo partly drawn) [Compound 538, trans-(1r,4R)-4-(4-(4-((2,6-dioxopiperidin-3-yl)amino)-2-fluorophenyl)piperidin-1-yl)-N-((1r,4R)-4-((5-fluoro-4-(6-(3-oxomorpholino)pyridin-2-yl)pyrimidin-2-yl)amino)cyclohexyl)cyclohexane-1-carboxamide]
< 500	O=C1CC[C@H](Nc2ccc(C3CCN(CC4(O)CCN(C(=O)[C@H]5CC[C@H](Nc6ncc(F)c(-c7cccc(-n8ccccc8=O)c7)n6)CC5)CC4)CC3)c(F)c2)C(=O)N1 (single isomer, unassigned) [Compound 443]
< 500	O=C1CCC(Nc2ccc(N3CCC(N4CCC(C(=O)N[C@H]5CC[C@H](Nc6ncc(F)c(-c7cccc(N8CCOC8=O)c7)n6)CC5)CC4)CC3)c(F)c2)C(=O)N1 (stereo partly drawn) [Compound 596, trans-1′-(4-((2,6-dioxopiperidin-3-yl)amino)-2-fluorophenyl)-N-(4-((5-fluoro-4-(3-(2-oxooxazolidin-3-yl)phenyl)pyrimidin-2-yl)amino)cyclohexyl)-[1,4′-bipiperidine]-4-carboxamide]
< 500	O=C1CCC(Nc2ccc(C3CCN(C4CCN(C(=O)O[C@H]5CC[C@H](Nc6ncc(F)c(-c7cccc(N8CCOCC8=O)c7)n6)CC5)CC4)CC3)c(F)c2)C(=O)N1 (stereo partly drawn) [Compound 690, trans-4-((5-fluoro-4-(3-(3-oxomorpholino)phenyl)pyrimidin-2-yl)amino)cyclohexyl 4-(4-((2,6-dioxopiperidin-3-yl)amino)-2-fluorophenyl)-[1,4′-bipiperidine]-1′-carboxylate]
< 500	O=C1CCC(Nc2ccc(N3CCC(OC4CCN(C(=O)[C@H]5CC[C@H](Nc6ncc(F)c(-c7cccc(-c8ccc[nH]c8=O)c7)n6)CC5)CC4)CC3)c(F)c2)C(=O)N1 (stereo partly drawn) [Compound 403, trans-3-((3-fluoro-4-(4-((1-(4-((5-fluoro-4-(3-(2-oxo-1,2-dihydropyridin-3-yl)phenyl)pyrimidin-2-yl)amino)cyclohexane-1-carbonyl)piperidin-4-yl)oxy)piperidin-1-yl)phenyl)amino)piperidine-2,6-dione]
< 500	O=C1CC[C@@H](Nc2ccc(N3CCC(N4CCC(C(=O)N[C@H]5CC[C@H](Nc6ncc(F)c(-c7cccc(N8CCCOC8=O)c7)n6)CC5)CC4)CC3)c(F)c2)C(=O)N1 [Compound 543, 1′-(4-(((R)-2,6-dioxopiperidin-3-yl)amino)-2-fluorophenyl)-N-((trans)-4-((5-fluoro-4-(3-(2-oxo-1,3-oxazinan-3-yl)phenyl)pyrimidin-2-yl)amino)cyclohexyl)-[1,4′-bipiperidine]-4-carboxamide]
< 500	O=C1CC[C@H](Nc2ccc(C3CCN(CC4CCN(C(=O)[C@H]5CC[C@H](Nc6ncc(F)c(-c7cccc(-c8ccc[nH]c8=O)c7)n6)CC5)CC4)CC3)c(F)c2)C(=O)N1 (single isomer, unassigned) [Compound 437]
< 500	O=C1CCC(Nc2ccc(C3CCN(C[C@H]4CC[C@H](COC(=O)N5CCC(Nc6ncc(F)c(-c7cccc(-c8ccccc8)c7)n6)CC5)CC4)CC3)c(F)c2)C(=O)N1 (stereo partly drawn) [Compound 640, trans-(4-((4-(4-((2,6-dioxopiperidin-3-yl)amino)-2-fluorophenyl)piperidin-1-yl)methyl)cyclohexyl)methyl 4-((4-([1,1′-biphenyl]-3-yl)-5-fluoropyrimidin-2-yl)amino)piperidine-1-carboxylate]

same assay, conditions: 24 hours incubation, MOLT-4, top concentration 10 micromolar; read-out: HiBIT-degradation MOLT4 PIP4k2C 24 hours DC50

DC50 [nM]	Compound
1000 to 5000	O=C1CCC(n2c(=O)oc3cc(N4CCC(CCN5CCC(C(=O)N[C@H]6CC[C@H](Nc7ncc(F)c(-c8cccc(-n9ccccc9=O)c8)n7)CC6)CC5)CC4)ccc32)C(=O)N1 (stereo partly drawn) [Compound 329, trans-1-[2-[1-[3-(2,6-dioxo-3-piperidyl)-2-oxo-1,3-benzoxazol-6-yl]-4-piperidyl]ethyl]-N-[4-[[5-fluoro-4-[3-(2-oxo-1-pyridyl)phenyl]pyrimidin-2-yl]amino]cyclohexyl]piperidine-4-carboxamide]
< 500	O=C1CCC(Nc2ccc(C3CCN(CCC4CCN(C(=O)[C@@H]5CCC[C@H](Nc6ncc(F)c(-c7cccc(-n8ccccc8=O)c7)n6)C5)CC4)CC3(F)F)c(F)c2)C(=O)N1 (stereo partly drawn) [Compound 310, 3-[4-[3,3-difluoro-1-[2-[1-[(1R,3S)-3-[[5-fluoro-4-[3-(2-oxo-1-pyridyl)phenyl]pyrimidin-2-yl]amino]cyclohexanecarbonyl]-4-piperidyl]ethyl]-4-piperidyl]-3-fluoro-anilino]piperidine-2,6-dione]
< 500	O=C1CCC(N2Cc3cc(C4CCN(CCN5CCN(C(=O)[C@H]6CCC[C@@H](Nc7ncc(Cl)c(-c8cccc(-c9ccccc9)c8)n7)C6)CC5)CC4)ccc3C2=O)C(=O)N1 (relative stereo) [Compound 61, cis-3-(5-(1-(2-(4-(3-((4-([1,1′-biphenyl]-3-yl)-5-chloropyrimidin-2-yl)amino)cyclohexane-1-carbonyl)piperazin-1-yl)ethyl)piperidin-4-yl)-1-oxoisoindolin-2-yl)piperidine-2,6-dione]
< 500	O=C1CCC(Nc2ccc(C3CCN(CCC4CCN(C(=O)[C@H]5CCC[C@@H](Nc6ncc(F)c(-c7cccc(-n8ccccc8=O)c7)n6)C5)CC4)CC3(F)F)c(F)c2)C(=O)N1 (stereo partly drawn) [Compound 311, 3-((4-(3,3-difluoro-1-(2-(1-((1S,3R)-3-((5-fluoro-4-(3-(2-oxopyridin-1(2H)-yl)phenyl)pyrimidin-2-yl)amino)cyclohexane-1-carbonyl)piperidin-4-yl)ethyl)piperidin-4-yl)-3-fluorophenyl)amino)piperidine-2,6-dione]
< 500	Cn1c(=O)n(C2CCC(=O)NC2=O)c2ccc(C3CCN(CC4CCN(CC(=O)N[C@H]5CC[C@H](Nc6ncc(F)c(-c7cccc(-n8ccccc8=O)c7)n6)CC5)CC4)CC3)cc21 (stereo partly drawn) [Compound 301, trans-2-(4-((4-(1-(2,6-dioxopiperidin-3-yl)-3-methyl-2-oxo-2,3-dihydro-1H-benzo[d]imidazol-5-yl)piperidin-1-yl)methyl)piperidin-1-yl)-N-(4-((5-fluoro-4-(3-(2-oxopyridin-1(2H)-yl)phenyl)pyrimidin-2-yl)amino)cyclohexyl)acetamide]
< 500	O=C1CCC(Nc2ccc(N3CCN(CC4CCN(CC(=O)N[C@H]5CC[C@H](Nc6ncc(F)c(-c7cccc(-n8ccccc8=O)c7)n6)CC5)CC4)CC3)c(F)c2)C(=O)N1 (stereo partly drawn) [Compound 326, trans-2-(4-((4-(4-((2,6-dioxopiperidin-3-yl)amino)-2-fluorophenyl)piperazin-1-yl)methyl)piperidin-1-yl)-N-(4-((5-fluoro-4-(3-(2-oxopyridin-1(2H)-yl)phenyl)pyrimidin-2-yl)amino)cyclohexyl)acetamide]
< 500	Cn1nc(C2CCC(=O)NC2=O)c2ccc(C3CCN(C(=O)CN4CCC(O)(C(=O)N5CCC(Nc6ncc(Cl)c(-c7cccc(-c8ccc(F)cc8)c7)n6)CC5)CC4)CC3)cc21 (centres unmarked) [Compound 289, 3-(6-(1-(2-(4-(4-((5-chloro-4-(4′-fluoro-[1,1′-biphenyl]-3-yl)pyrimidin-2-yl)amino)piperidine-1-carbonyl)-4-hydroxypiperidin-1-yl)acetyl)piperidin-4-yl)-1-methyl-1H-indazol-3-yl)piperidine-2,6-dione]
